Values joined by “and” are separate entries in the source; they are usually repeats but may differ in a detail not shown here. Identical values can stand only once. Like-named read-outs stand apart in the source and are kept apart here.
What was measured:
[1] = system: T. b. rhodesiense STIB 900 bloodstream forms; set-up: method as in PMID 22331812, PMID 24080104, PMID 21624443, PMID 22396915; details: cited from earlier work; for SI (Selectivity Index): IC50 against L6 cells divided by IC50 against STIB 900 strain, previously reported compounds; for IC50: previously reported compounds included for comparison, compound 9 tested once, read-out: T. brucei STIB 900 IC50
[2] = system: rat skeletal myoblasts (L6-cells); set-up: method as in PMID 22331812, PMID 24080104, PMID 21624443, PMID 22396915; details: cytotoxicity; previously reported compounds included for comparison; cited from earlier work
[3] = system: rat skeletal myoblasts (L6-cells); experiment: cells; assay type: cell-based; details: for IC50: read-out: L6 cells IC50
Procedure: The cytotoxicity assay was performed with rat skeletal myoblasts (L6-cells) seeded in 100 μL RPMI 1640 in 96-well micro titre plates, using the Alamar Blue assay described above. After 24 h the medium was removed and replaced by 100 μL of fresh RPMI 1640 with serial threefold drug dilution. Podophyllotoxin (purity > 95%, Sigma-Aldrich) was used as a reference drug. After 70 h of incubation under a humidified 5% CO2 atmosphere, 10 μL of the Alamar blue marker (see above) was added to all wells. The plates were incubated for an additional 2 h. A Spectramax Gemini XS micro plate fluorescence reader (Molecular Devices) was used to read the plates using an excitation wavelength of 536 nm and an emission wavelength of 588 nm. The IC50s were calculated from the sigmoidal growth inhibition curves using Softmax Pro software (Molecular Devices).

[4] = system: T. b. rhodesiense STIB 900 bloodstream forms; experiment: In vitro antitrypanosomal Alamar Blue assay; assay type: cell-based, Trypanosoma brucei rhodesiense; details: for SI (Selectivity Index): IC50 against L6 cells divided by IC50 against STIB 900 strain; for IC50: read-out: T. brucei STIB 900 IC50
Procedure: Evaluation of in vitro antiprotozoal activity against T. b. rhodesiense was done using the Alamar Blue assay to determine IC50s as previously described. Serial threefold dilution were prepared in 96-well micro titre plates, and 4000 T. b. rhodesiense STIB 900 bloodstream forms in 50 μL were added to each well except for the negative controls. Melarsoprol (Arsobal®, purity > 95%, Sanofi-Aventis, Meyrin, Switzerland) was used as reference drugs. […] The IC50 values were calculated from the sigmoidal growth inhibition curves using Softmax Pro software (Molecular Devices).

[5] = Trypanosoma brucei, 70 h, 70 h incubation, average of three independent assays
[6] = Rattus norvegicus, L6, 70 h, cytotoxicity, 70 h incubation, average of three independent assays
[7] = Trypanosoma brucei, 70 h incubation, average of three independent assays
[8] = Rattus norvegicus, L6, cytotoxicity, 70 h incubation, average of three independent assays
[9] = 70 h incubation, average of three independent assays

Row | Structure (SMILES) | SI (Selectivity Index) [4] | IC50 [4, 5] [µM] | IC50 [3, 6] [µM] | further results
1 | C=C1C(=O)O[C@@H]2/C=C(\C)CC/C=C(\C)CC[C@@H]12 [Compound 7, costunolide] | – | – | – | SI (Selectivity Index) [1]: 5.9; IC50 [1]: 1.3 ± 0.4 µM; IC50 [2]: 7.7 ± 1.3 µM
2 | COc1cc([C@@H]2c3cc4c(cc3[C@H](O)[C@H]3COC(=O)[C@H]23)OCO4)cc(OC)c1OC [Podophyllotoxin, reference compound] | – | – | – | IC50 ([3]; Rattus norvegicus, L6, 70 h): 0.02 ± 0.01 µM
3 | C=C1CC(O)C2C(=C)C(=O)OC2C2C(=C)C(O)CC12 (centres unmarked) [Compound 5, Deacylcynaropicrin] | – | – | – | fold lower antitrypanosomal activity as compared to 1 ([4]; compared to compound 1): 16 fold; fold lower cytotoxicity as compared to 1 ([3]; compared to compound 1): nine; SI (Selectivity Index) [1]: 3.9; IC50 [1]: 4.9 ± 0.34 µM; IC50 [2]: 19 µM and 19.2 µM
4 | C=C(CO)C(=O)O[C@H]1C/C(C)=C\CC/C(CO)=C\[C@H]2OC(=O)C(=C)[C@H]12 [Compound 2, Onopordopicrin] | – | – | – | SI (Selectivity Index) [1]: 8.2; IC50 [1]: 0.4 ± 0.01 µM; IC50 [2]: 3.1 ± 1.1 µM
5 | C=C1C(=O)O[C@@H]2/C=C(\CO)CC/C=C(\C)C[C@H](OC(=O)C(=C)[C@H](O)CO)[C@@H]12 [Compound 3, Cnicin] | 10 | 0.4 ± 0.1 | 4.2 ± 0.9 | –
6 | C=C1C(=O)OC2C1CCC(=C)C1CC(OC(C)=O)C(=C)C12 (centres unmarked) [Compound 9, Zaluzanin D] | – | – | – | SI (Selectivity Index) [1]: 1.4; IC50 [1]: 10.8 µM; IC50 [2]: 15.6 µM
7 | Nc1nc(N)nc(Nc2ccc([As]3SCC(CO)S3)cc2)n1 (centres unmarked) [Melarsoprol, reference compound] | 2170 | – | – | IC50 ([4]; Trypanosoma brucei, 70 h): 0.01 ± 0.01 µM; IC50 ([3]; Rattus norvegicus, L6, 70 h): 21.7 ± 8.7 µM
8 | CC1=C2C3OC(=O)C(CNCc4ccc(Cl)cc4)C3CCC2(C)C=CC1=O (centres unmarked) [Compound 32, 4-Chlorobenzylamine adduct] | 3.4 | 10.6 ± 1.5 | 34.8 ± 1.2 | –
9 | CC1=C2[C@H]3OC(=O)[C@@H](C)[C@@H]3CC[C@@]2(C)C=CC1=O [Compound 17, Santonin] | >8.8 | – | – | IC50 [4, 7]: 41.5 ± 0.8 µM; IC50 [3, 8]: > 366 µM
10 | C=C[C@@]12COC(=O)C(=C)[C@@H]1[C@H]1OC(=O)C(=C)[C@@H]1[C@@H](OC(=O)C(=C)CO)C2 [Compound 4, Vernodalin] | 3 | 0.2 ± 0.01 | 0.6 ± 0.02 | –
11 | CC1C(=O)CCC2(C)CCC3C(CN4CCOCC4)C(=O)OC3C12 (centres unmarked) [Compound 23, Morpholine adduct] | 5.6 | 11.8 ± 2.7 | 65.6 ± 9.7 | –
12 | CC1C(=O)CCC2(C)CCC3C(CNCCc4ccc(O)cc4)C(=O)OC3C12 (centres unmarked) [Compound 27, Tyramine adduct] | 4 | 13 ± 1.4 | 45.6 ± 3.2 | –
13 | CC1=C2C3OC(=O)C(C)C3CCC(C)(O)C2CC1O (centres unmarked) [Compound 15, 3-Hydroxyisophotosantonin] | 6.4 | 54.7 ± 8 | 353 ± 4 | –
14 | C=C1CC(O)C2C(CN(C)C)C(=O)OC2C2C(=C)C(O)CC12 (centres unmarked) [Compound 20, Deacylcynaropicrin dimethylamine adduct] | 2.5 | 3.6 ± 1 | 8.6 ± 1.3 | –
15 | CCN(CC)CC1C(=O)OC2C3=C(C)C(=O)CC3C(C)(O)CCC12 (centres unmarked) [Compound 21, Deacylated diethylamine adduct] | 2.2 | 4.2 ± 0.8 | 9.4 ± 2.2 | –
16 | C=C1C(=O)O[C@H]2[C@H]1CC/C(C)=C/CC[C@@]1(C)O[C@@H]21 [Compound 8, parthenolide] | – | – | – | SI (Selectivity Index) [1]: 6.5; IC50 [1]: 0.8 ± 0.5 µM; IC50 [2]: 5.2 ± 0.9 µM
17 | CC(=O)OC1(C)CCC2C(CNCCc3ccc(O)cc3)C(=O)OC2C2=C(C)C(=O)CC21 (centres unmarked) [Compound 29, Tyramine adduct] | 3.3 | 6.6 ± 0.7 | 22.1 ± 4 | –

Row | Structure (SMILES) | SI (Selectivity Index) [4] | IC50 [4, 5] [µM] | IC50 [3, 6] [µM] | further results
18 | CC(=O)OC1(C)CCC2C(C)C(=O)OC2C2=C(C)C(=O)CC21 (centres unmarked) [Compound 16] | >6.4 | 46 | > 292 | IC50 [4, 9]: 45.7 ± 5 µM
19 | CC1C(=O)C=CC2(C)CCC3C(CN4CCOCC4)C(=O)OC3C12 (centres unmarked) [Compound 24, Morpholine adduct] | 13.3 | 2.4 ± 0.7 | 31.3 ± 1.4 | –
20 | CC12CCC3C(CN4CCOCC4)C(=O)OC3C13C=CC(=O)C23C (centres unmarked) [Compound 25, Morpholine adduct] | 3.8 | 2.6 ± 0.5 | 9.9 ± 1.6 | –
21 | CC1C(=O)OC2C1CCC1(C)C=CC(=O)C(C)C21 (centres unmarked) [Compound 18] | 2.6 | – | – | IC50 [4, 7]: 12.9 ± 2.4 µM; IC50 [3, 8]: 34 ± 1.5 µM
22 | C=C1C(=O)O[C@@H]2[C@H]1CC[C@H](C)[C@]1(CCC(=O)O1)[C@@]2(C)O [Compound 11, Psilostachyin A] | 1.2 | 5.8 ± 0.7 | 6.9 ± 1.8 | –
23 | CC1=C2C3OC(=O)C(CNCCc4ccc(O)cc4)C3CCC2(C)C=CC1=O (centres unmarked) [Compound 28, Tyramine adduct] | 6.5 | 13.4 ± 1.1 | 87.9 ± 2.2 | –
24 | CC12CCC3C(CNCCc4ccc(Cl)cc4)C(=O)OC3C13C=CC(=O)C23C (centres unmarked) [Compound 33, 2-(4-Chlorophenyl)ethylamine adduct] | 2.7 | 10.2 ± 3.2 | 27.6 ± 6.7 | –
25 | CC(=O)OC1(C)CCC2C(CNCCc3ccc(Cl)cc3)C(=O)OC2C2=C(C)C(=O)CC21 (centres unmarked) [Compound 34, 2-(4-Chlorophenyl)ethylamine adduct] | 4.2 | 5.4 ± 1.1 | 22.5 ± 1.6 | –
26 | C=C1C(=O)O[C@@H]2/C=C(\C)CC/C=C(\C)C[C@@H](OC(=O)/C(=C/CO)CO)[C@@H]12 [Compound 13, Eupatoriopicrin] | – | – | – | SI (Selectivity Index) [1]: 1.3; IC50 [1]: 1.2 ± 0.2 µM; IC50 [2]: 1.6 ± 0.1 µM
27 | CC(=O)OC1(C)CCC2C(CN3CCOCC3)C(=O)OC2C2=C(C)C(=O)CC21 (centres unmarked) [Compound 22, Morpholine adduct] | 10.3 | 0.7 ± 0.1 | 7.4 ± 0.8 | –
28 | C=C1C(=O)OC2C3=C(C)C(=O)CC3C(C)(OC(C)=O)CCC12 (centres unmarked) [Compound 10] | 7.6 | 0.7 | 4.3 ± 0.5 | IC50 [4, 9]: 0.6 ± 0.2 µM
29 | C=C1CC[C@H]2C(=C)CC[C@H]3C(=C)C(=O)O[C@@H]3[C@@H]12 [Compound 6, dehydrocostuslactone] | – | – | – | SI (Selectivity Index) [1]: 1.9; IC50 [1]: 4.4 ± 1.2 µM; IC50 [2]: 8.3 ± 1.9 µM
30 | CC1=C2C3OC(=O)C(CN4CCN(c5ccccc5Cl)CC4)C3CCC2(C)C=CC1=O (centres unmarked) [Compound 31, 1-(2-Chlorophenyl)piperazine adduct] | 3.1 | > 5 | > 20 | IC50 [4, 9]: 7 ± 2.2 µM; IC50 ([3]; cytotoxicity, 70 h incubation, average of three independent assays): 21.8 ± 2.7 µM
31 | C=C1C(=O)O[C@@H]2/C=C(/C)[C@@H](O)C/C=C(\C)C[C@H](OC(=O)/C(C)=C\C)[C@@H]12 [Compound 14, Nobilin] | – | – | – | IC50 ([3]; Rattus norvegicus, L6, 70 h): 10.5 ± 0.1 µM
32 | CC1C(=O)C=CC2(C)CCC3C(CNCCc4ccc(O)cc4)C(=O)OC3C12 (centres unmarked) [Compound 26, Tyramine adduct] | >35.0 | 6.7 ± 1.3 | > 236 | –
33 | CC12CCC3C(CNCCc4ccc(O)cc4)C(=O)OC3C13C=CC(=O)C23C (centres unmarked) [Compound 30, Tyramine adduct] | 3.2 | 9.9 ± 1.6 | 31.8 ± 1.3 | –

Source: article PMC6271975, “Structure-Activity Relationship Study of Sesquiterpene Lactones and Their Semi-Synthetic Amino Derivatives as Potential Antitrypanosomal Products” (Molecules, 2014)
